According to publication PMC8800111 (The Journal of Biological Chemistry, 2021):

What was measured:
Format in all cases: cell-based
[1] = target: proteins of U3A human fibrosarcoma cells (4462 proteins detected) (Homo sapiens, UniProt Q14847); settings: protein LASP1, U3A cells
[2] = target: proteins of U3A human fibrosarcoma cells (4462 proteins detected) (Homo sapiens, UniProt P23921); settings: protein RRM1; U3A, 10 μM, 2 h
[3] = target: proteins of U3A human fibrosarcoma cells (4462 proteins detected) (Homo sapiens, UniProt O00764); settings: protein PDXK, U3A cells
[4] = target: proteins of U3A human fibrosarcoma cells (4462 proteins detected) (Homo sapiens, UniProt Q9NSV4); settings: protein DIAPH3, U3A cells
[5] = target: proteins of U3A human fibrosarcoma cells (4462 proteins detected) (Homo sapiens, UniProt Q9NRN7); settings: protein AASDHPPT; U3A cells
[6] = target: proteins of U3A human fibrosarcoma cells (4462 proteins detected) (Homo sapiens, UniProt Q86WQ0); settings: protein NR2C2AP, U3A cells
[7] = target: proteins of U3A human fibrosarcoma cells (4462 proteins detected) (Homo sapiens, UniProt P54802); settings: protein NAGLU, U3A cells
[8] = target: proteins of U3A human fibrosarcoma cells (4462 proteins detected) (Homo sapiens, UniProt Q8IWW6); settings: protein ARHGAP12; soluble abundance after heat, U3A cells
[9] = target: proteins of U3A human fibrosarcoma cells (4462 proteins detected) (Homo sapiens, UniProt Q8IY18); settings: protein SMC5; U3A, 10 μM, 2 h
[10] = target: proteins of U3A human fibrosarcoma cells (4462 proteins detected) (Homo sapiens, UniProt O75643); settings: protein SNRNP200; soluble abundance after heat, U3A cells
[11] = target: proteins of U3A human fibrosarcoma cells (4462 proteins detected) (Homo sapiens, UniProt O75937); settings: protein DNAJC8, U3A cells
[12] = target: proteins of U3A human fibrosarcoma cells (4462 proteins detected) (Homo sapiens, UniProt P04818); settings: PISA
[13] = target: proteins of U3A human fibrosarcoma cells (4462 proteins detected) (Homo sapiens, UniProt Q6YN16); settings: protein HSDL2; U3A cells
[14] = target: proteins of U3A human fibrosarcoma cells (4462 proteins detected) (Homo sapiens, UniProt Q5T2R2); settings: protein PDSS1; U3A cells
[15] = target: proteins of U3A human fibrosarcoma cells (4462 proteins detected) (Homo sapiens, UniProt Q9Y6E2); settings: protein BZW2; U3A cells
[16] = target: proteins of U3A human fibrosarcoma cells (4462 proteins detected) (Homo sapiens, UniProt Q9NQZ2); settings: protein UTP3; soluble abundance after heat, U3A cells
[17] = target: proteins of U3A human fibrosarcoma cells (4462 proteins detected) (Homo sapiens, UniProt P48643); settings: protein CCT5; U3A cells
[18] = target: proteins of U3A human fibrosarcoma cells (4462 proteins detected) (Homo sapiens, UniProt Q9UIG0); settings: protein BAZ1B; U3A cells
[19] = target: proteins of U3A human fibrosarcoma cells (4462 proteins detected) (Homo sapiens, UniProt O00232); settings: protein PSMD12; U3A cells
[20] = target: proteins of U3A human fibrosarcoma cells (4462 proteins detected) (Homo sapiens, UniProt Q13492); settings: protein PICALM; U3A cells
[21] = target: proteins of U3A human fibrosarcoma cells (4462 proteins detected) (Homo sapiens, UniProt Q01518); settings: protein CAP1; U3A cells
[22] = target: proteins of U3A human fibrosarcoma cells (4462 proteins detected) (Homo sapiens, UniProt P37837); settings: protein TALDO1, U3A cells
[23] = target: proteins of U3A human fibrosarcoma cells (4462 proteins detected) (Homo sapiens, UniProt P35250); settings: protein RFC2; U3A cells
[24] = target: proteins of U3A human fibrosarcoma cells (4462 proteins detected) (Homo sapiens, UniProt Q6UWP8); settings: protein SBSN, U3A cells
[25] = target: proteins of U3A human fibrosarcoma cells (4462 proteins detected) (Homo sapiens, UniProt Q9UJX6); settings: protein ANAPC2; soluble abundance after heat, U3A cells
[26] = target: proteins of U3A human fibrosarcoma cells (4462 proteins detected) (Homo sapiens, UniProt Q8TF74); settings: protein WIPF2, U3A cells
[27] = target: proteins of U3A human fibrosarcoma cells (4462 proteins detected) (Homo sapiens, UniProt Q9HC38); settings: protein GLOD4, U3A cells
[28] = target: proteins of U3A human fibrosarcoma cells (4462 proteins detected) (Homo sapiens, UniProt P26583); settings: protein HMGB2; U3A, 10 μM, 2 h
[29] = target: proteins of U3A human fibrosarcoma cells (4462 proteins detected) (Homo sapiens, UniProt Q9UIS9); settings: protein MBD1; U3A cells
[30] = target: proteins of U3A human fibrosarcoma cells (4462 proteins detected) (Homo sapiens, UniProt O60563); settings: protein CCNT1; U3A cells

proteins of U3A human fibrosarcoma cells (4462 proteins detected) (Homo sapiens, UniProt Q9HC38), sequence (Q9HC38 whole entry): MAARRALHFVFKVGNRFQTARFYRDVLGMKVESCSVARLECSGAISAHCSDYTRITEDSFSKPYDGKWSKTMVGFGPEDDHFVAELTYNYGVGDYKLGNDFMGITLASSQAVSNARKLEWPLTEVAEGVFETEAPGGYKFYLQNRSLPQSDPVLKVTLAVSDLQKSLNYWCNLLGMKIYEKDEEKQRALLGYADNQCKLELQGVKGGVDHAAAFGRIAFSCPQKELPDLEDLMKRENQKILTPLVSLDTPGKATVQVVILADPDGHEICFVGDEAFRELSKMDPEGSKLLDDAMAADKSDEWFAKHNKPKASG
proteins of U3A human fibrosarcoma cells (4462 proteins detected) (Homo sapiens, UniProt Q9NRN7), sequence (Q9NRN7 whole entry): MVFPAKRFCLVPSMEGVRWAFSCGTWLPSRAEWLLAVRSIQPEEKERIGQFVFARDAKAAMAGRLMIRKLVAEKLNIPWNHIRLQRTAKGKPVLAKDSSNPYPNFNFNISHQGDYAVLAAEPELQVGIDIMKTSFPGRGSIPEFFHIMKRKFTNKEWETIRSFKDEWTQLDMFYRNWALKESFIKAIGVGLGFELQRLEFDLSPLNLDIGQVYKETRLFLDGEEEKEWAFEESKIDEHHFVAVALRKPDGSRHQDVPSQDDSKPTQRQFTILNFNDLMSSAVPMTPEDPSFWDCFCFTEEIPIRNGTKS
proteins of U3A human fibrosarcoma cells (4462 proteins detected) (Homo sapiens, UniProt P35250), sequence (P35250 whole entry): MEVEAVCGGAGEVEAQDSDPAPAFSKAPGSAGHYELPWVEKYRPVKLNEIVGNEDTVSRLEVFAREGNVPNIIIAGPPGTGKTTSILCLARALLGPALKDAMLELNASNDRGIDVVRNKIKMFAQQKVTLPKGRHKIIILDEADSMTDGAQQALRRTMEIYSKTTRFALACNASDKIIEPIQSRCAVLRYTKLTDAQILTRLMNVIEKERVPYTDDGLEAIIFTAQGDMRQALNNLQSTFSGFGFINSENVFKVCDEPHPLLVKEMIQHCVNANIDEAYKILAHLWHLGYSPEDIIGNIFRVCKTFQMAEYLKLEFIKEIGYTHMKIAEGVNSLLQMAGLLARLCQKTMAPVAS
proteins of U3A human fibrosarcoma cells (4462 proteins detected) (Homo sapiens, UniProt Q9UJX6), sequence (Q9UJX6 whole entry): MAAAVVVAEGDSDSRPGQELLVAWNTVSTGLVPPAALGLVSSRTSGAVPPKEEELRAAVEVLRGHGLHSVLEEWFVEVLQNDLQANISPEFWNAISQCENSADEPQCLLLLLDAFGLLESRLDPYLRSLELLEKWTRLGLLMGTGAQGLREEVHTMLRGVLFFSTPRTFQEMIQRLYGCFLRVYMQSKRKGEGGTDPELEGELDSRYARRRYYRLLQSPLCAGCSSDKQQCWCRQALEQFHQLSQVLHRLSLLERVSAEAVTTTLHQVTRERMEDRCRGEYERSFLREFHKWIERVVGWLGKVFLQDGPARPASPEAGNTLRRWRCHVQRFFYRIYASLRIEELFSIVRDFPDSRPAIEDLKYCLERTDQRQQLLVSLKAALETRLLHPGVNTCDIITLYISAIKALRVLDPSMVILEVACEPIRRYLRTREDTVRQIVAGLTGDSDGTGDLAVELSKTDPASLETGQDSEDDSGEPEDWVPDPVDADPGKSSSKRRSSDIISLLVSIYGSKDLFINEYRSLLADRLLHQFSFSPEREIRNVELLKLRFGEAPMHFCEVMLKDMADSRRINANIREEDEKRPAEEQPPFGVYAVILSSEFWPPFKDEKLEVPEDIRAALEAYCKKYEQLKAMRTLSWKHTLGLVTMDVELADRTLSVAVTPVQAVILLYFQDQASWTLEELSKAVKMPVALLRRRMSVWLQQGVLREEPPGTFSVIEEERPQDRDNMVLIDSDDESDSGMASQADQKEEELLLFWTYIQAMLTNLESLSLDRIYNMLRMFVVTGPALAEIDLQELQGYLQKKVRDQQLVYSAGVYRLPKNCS
proteins of U3A human fibrosarcoma cells (4462 proteins detected) (Homo sapiens, UniProt P37837), sequence (P37837 whole entry): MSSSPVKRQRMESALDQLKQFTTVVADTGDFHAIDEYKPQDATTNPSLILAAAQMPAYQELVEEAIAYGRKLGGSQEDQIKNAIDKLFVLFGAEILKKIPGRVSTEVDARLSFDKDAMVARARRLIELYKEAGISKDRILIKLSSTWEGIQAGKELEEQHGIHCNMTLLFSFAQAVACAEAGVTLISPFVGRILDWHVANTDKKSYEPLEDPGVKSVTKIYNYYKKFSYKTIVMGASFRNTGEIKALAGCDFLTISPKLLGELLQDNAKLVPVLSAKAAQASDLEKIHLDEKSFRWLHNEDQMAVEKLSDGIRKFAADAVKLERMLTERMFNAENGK
proteins of U3A human fibrosarcoma cells (4462 proteins detected) (Homo sapiens, UniProt Q13492), sequence (Q13492 whole entry): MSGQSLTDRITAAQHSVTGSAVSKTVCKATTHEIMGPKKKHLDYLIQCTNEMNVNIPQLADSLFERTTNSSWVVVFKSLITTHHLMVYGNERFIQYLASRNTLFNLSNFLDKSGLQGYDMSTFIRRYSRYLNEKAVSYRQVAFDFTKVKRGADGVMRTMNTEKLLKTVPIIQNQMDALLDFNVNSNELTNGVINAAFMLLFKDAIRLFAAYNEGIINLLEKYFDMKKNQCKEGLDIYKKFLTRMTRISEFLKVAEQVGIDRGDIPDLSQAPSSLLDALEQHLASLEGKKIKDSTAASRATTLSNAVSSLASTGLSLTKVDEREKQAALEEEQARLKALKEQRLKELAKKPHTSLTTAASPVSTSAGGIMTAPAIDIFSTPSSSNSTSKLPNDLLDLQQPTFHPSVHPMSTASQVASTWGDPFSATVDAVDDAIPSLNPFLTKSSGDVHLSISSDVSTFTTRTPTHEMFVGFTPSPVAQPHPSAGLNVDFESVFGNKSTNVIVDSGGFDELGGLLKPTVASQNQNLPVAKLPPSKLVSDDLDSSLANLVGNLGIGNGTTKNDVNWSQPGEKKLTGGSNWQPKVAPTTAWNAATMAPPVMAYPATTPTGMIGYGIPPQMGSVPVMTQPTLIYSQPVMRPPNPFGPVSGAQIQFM
proteins of U3A human fibrosarcoma cells (4462 proteins detected) (Homo sapiens, UniProt Q9NQZ2), sequence (Q9NQZ2 whole entry): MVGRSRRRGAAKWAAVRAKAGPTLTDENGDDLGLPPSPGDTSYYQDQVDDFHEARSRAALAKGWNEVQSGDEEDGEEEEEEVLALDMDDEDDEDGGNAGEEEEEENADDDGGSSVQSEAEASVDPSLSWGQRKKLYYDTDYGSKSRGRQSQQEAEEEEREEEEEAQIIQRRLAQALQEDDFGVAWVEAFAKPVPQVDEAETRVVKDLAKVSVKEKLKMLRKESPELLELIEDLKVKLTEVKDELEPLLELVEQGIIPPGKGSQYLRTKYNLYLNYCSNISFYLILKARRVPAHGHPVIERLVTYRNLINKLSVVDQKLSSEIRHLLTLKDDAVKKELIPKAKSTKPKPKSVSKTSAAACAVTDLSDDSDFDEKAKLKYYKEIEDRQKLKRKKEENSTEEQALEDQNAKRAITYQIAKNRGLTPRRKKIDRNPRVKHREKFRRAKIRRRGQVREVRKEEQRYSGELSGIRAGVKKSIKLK
proteins of U3A human fibrosarcoma cells (4462 proteins detected) (Homo sapiens, UniProt P26583), sequence (P26583 whole entry): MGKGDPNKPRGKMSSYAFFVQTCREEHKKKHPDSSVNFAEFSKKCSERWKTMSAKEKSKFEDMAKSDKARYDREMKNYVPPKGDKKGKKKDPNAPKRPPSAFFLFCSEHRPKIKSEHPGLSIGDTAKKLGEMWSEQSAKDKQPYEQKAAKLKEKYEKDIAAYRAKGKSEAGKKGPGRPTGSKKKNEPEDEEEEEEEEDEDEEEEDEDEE
proteins of U3A human fibrosarcoma cells (4462 proteins detected) (Homo sapiens, UniProt Q8IY18), sequence (Q8IY18 whole entry): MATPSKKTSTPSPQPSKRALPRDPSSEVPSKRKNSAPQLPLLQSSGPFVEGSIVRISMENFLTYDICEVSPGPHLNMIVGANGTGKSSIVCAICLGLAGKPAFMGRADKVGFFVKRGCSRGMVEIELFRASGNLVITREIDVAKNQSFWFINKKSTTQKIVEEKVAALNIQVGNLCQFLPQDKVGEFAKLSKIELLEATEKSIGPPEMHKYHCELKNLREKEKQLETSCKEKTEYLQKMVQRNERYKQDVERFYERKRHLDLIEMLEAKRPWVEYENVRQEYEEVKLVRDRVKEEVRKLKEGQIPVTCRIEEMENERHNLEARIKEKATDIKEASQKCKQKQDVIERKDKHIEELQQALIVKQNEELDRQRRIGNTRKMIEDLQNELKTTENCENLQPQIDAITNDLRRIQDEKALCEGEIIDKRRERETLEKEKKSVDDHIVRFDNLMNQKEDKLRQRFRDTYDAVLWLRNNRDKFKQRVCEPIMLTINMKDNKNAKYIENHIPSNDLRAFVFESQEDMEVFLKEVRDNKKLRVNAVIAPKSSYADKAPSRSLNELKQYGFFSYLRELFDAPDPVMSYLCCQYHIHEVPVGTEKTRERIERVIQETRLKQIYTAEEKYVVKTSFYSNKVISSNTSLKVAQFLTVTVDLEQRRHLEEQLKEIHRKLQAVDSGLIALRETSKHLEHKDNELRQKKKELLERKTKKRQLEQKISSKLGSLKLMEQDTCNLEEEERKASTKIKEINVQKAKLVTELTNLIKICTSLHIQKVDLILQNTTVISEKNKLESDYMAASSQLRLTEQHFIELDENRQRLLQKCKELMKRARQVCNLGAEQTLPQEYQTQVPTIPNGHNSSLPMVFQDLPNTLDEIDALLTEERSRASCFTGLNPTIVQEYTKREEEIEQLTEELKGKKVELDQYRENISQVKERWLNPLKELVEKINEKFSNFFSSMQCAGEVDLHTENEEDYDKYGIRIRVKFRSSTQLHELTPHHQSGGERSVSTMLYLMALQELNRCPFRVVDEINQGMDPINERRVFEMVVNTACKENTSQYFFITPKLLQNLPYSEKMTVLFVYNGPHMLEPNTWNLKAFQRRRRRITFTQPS
proteins of U3A human fibrosarcoma cells (4462 proteins detected) (Homo sapiens, UniProt Q86WQ0), sequence (Q86WQ0 whole entry): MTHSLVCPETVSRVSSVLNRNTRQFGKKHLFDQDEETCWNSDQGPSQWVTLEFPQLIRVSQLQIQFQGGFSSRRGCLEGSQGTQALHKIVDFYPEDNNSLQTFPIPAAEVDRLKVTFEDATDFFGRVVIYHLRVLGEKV
proteins of U3A human fibrosarcoma cells (4462 proteins detected) (Homo sapiens, UniProt O75937), sequence (O75937 whole entry): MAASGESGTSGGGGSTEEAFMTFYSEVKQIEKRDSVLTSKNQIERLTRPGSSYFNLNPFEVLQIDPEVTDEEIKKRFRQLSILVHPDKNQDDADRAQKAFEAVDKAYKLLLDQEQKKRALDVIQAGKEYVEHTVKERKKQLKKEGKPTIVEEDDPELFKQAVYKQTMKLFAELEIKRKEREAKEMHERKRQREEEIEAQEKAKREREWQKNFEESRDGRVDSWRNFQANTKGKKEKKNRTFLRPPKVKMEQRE

## CCc1nc(N)nc(N)c1-c1ccc(Cl)cc1 [pyrimethamine]
[1]
  Log2 (PYR/DMSO): -0.04
[2]
  Log2 (PYR/DMSO), RRM1: 0.24
[3]
  Log2 (PYR/DMSO): -0.05
[4]
  Log2 (PYR/DMSO): -0.04
[5]
  Log2 (PYR/DMSO): 0.17
[6]
  Log2 (PYR/DMSO): -0.03
[7]
  Log2 (PYR/DMSO): -0.03
[8]
  Log2 (PYR/DMSO): 0.13
[9]
  Log2 (PYR/DMSO), SMC5: 0.30
[10]
  Log2 (PYR/DMSO): 0.15
[11]
  Log2 (PYR/DMSO): -0.05
[12]
  engagement of TS (thymidylate synthase): no engagement
[13]
  Log2 (PYR/DMSO): 0.22
[14]
  Log2 (PYR/DMSO): 0.20
[15]
  Log2 (PYR/DMSO): 0.19
[16]
  Log2 (PYR/DMSO): 0.15
[17]
  Log2 (PYR/DMSO): 0.19
[18]
  Log2 (PYR/DMSO): 0.21
[19]
  Log2 (PYR/DMSO): 0.18
[20]
  Log2 (PYR/DMSO): 0.17
[21]
  Log2 (PYR/DMSO): 0.20
[22]
  Log2 (PYR/DMSO): -0.04
[23]
  Log2 (PYR/DMSO): 0.17
[24]
  Log2 (PYR/DMSO): -0.05
[25]
  Log2 (PYR/DMSO): 0.14
[26]
  Log2 (PYR/DMSO): -0.05
[27]
  Log2 (PYR/DMSO): -0.04
[28]
  Log2 (PYR/DMSO), HMGB2: -0.14
[29]
  Log2 (PYR/DMSO): 0.19
[30]
  Log2 (PYR/DMSO): 0.18
